Active and inactive are the calls of the source. The rule behind the calls is not given here.
Legend:
[1] = system: Escherichia coli; test: Antimicrobial activity against sdiA-knockout Escherichia coli AY1297 assessed as inhibition of planktonic growth at 200 uM measured for 2 to 24 hrs; format: organism-based; conditions: in vivo
[2] = system: Pseudomonas aeruginosa; test: Antimicrobial activity against wild-type Pseudomonas aeruginosa PAO1 assessed as inhibition of planktonic growth at 200 uM measured for 2 to 24 hrs; format: organism-based; conditions: in vivo
[3] = system: Pseudomonas aeruginosa; test: Antimicrobial activity against wild-type Pseudomonas aeruginosa PAO1 assessed as inhibition of planktonic growth at 1 to 100 uM measured for 2 to 24 hrs; format: organism-based; conditions: in vivo
[4] = system: Escherichia coli; test: Inhibition of biofilm formation in wild-type Escherichia coli RP437 at 100 uM; format: functional, organism-based
[5] = system: Escherichia coli; test: Antimicrobial activity against wild-type Escherichia coli RP437 assessed as inhibition of planktonic growth at 1 to 100 uM measured for 2 to 24 hrs; format: organism-based; conditions: in vivo
[6] = system: Pseudomonas aeruginosa; test: Inhibition of biofilm formation in wild-type Pseudomonas aeruginosa PAO1 at 100 uM; format: functional, organism-based
[7] = system: Escherichia coli; test: Antimicrobial activity against wild-type Escherichia coli RP437 assessed as inhibition of planktonic growth at 200 uM measured for 2 to 24 hrs; format: organism-based; conditions: in vivo
[8] = biological target: T1, HTH-type quorum-sensing regulator RhlR (Pseudomonas aeruginosa (strain ATCC 15692 / PAO1 / 1C / PRS 101 / LMG12228)) (UniProt P54292); test: Agonist activity at Pseudomonas aeruginosa PAO1 RhlR expressing rhlI coexpressing LVA-GFP at 100 to 200 uM after 24 hrs by fluorescence assay
T1 sequence (whole entry): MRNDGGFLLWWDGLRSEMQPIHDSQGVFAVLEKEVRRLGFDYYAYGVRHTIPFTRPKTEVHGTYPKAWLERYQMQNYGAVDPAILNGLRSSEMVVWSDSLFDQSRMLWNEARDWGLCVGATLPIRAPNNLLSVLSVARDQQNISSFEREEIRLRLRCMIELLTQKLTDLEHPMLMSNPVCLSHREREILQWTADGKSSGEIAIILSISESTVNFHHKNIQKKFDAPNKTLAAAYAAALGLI

[9] = system: Escherichia coli; test: Inhibition of biofilm formation in sdiA-knockout Escherichia coli AY1297 expressing red fluorescent protein assessed as reduction in biomass at 200 uM after 24 hrs by confocal laser scanning microscopic analysis relative to control; format: functional; conditions: AY1297, 24 h
[10] = system: Escherichia coli; test: Inhibition of biofilm formation in sdiA-knockout Escherichia coli AY1297 expressing red fluorescent protein assessed as thickness of biofilm at 200 uM after 24 hrs by confocal laser scanning microscopic analysis (reference value: 157 micrometer); format: functional
[11] = system: Escherichia coli; test: Inhibition of biofilm formation in wild-type Escherichia coli RP437 at 200 uM after 24 hrs by crystal violet staining-based assay relative to control; format: functional
[12] = system: Escherichia coli; test: Inhibition of biofilm formation in wild-type Escherichia coli RP437 expressing red fluorescent protein assessed as effect on surface area of biofilm at 200 uM after 24 hrs by confocal laser scanning microscopic analysis; format: functional, organism-based
[13] = system: Escherichia coli; test: Inhibition of biofilm formation in wild-type Escherichia coli RP437 at 200 uM after 24 hrs by scanning electron microscopic analysis; format: functional, organism-based
[14] = system: Escherichia coli; test: Inhibition of biofilm formation in wild-type Escherichia coli RP437 expressing red fluorescent protein assessed as reduction in biomass at 200 uM after 24 hrs by confocal laser scanning microscopic analysis relative to control; format: functional; conditions: RP437, 24 h
[15] = system: Escherichia coli; test: Ratio of inhibition of biofilm formation in sdiA-knockout Escherichia coli AY1297 to inhibition of biofilm formation in wild-type Escherichia coli RP437; format: functional
[16] = system: Pseudomonas aeruginosa; test: Inhibition of biofilm formation in wild-type Pseudomonas aeruginosa PAO1 expressing red fluorescent protein assessed as reduction in biomass at 200 uM after 24 hrs by confocal laser scanning microscopic analysis relative to control; format: functional
[17] = system: Escherichia coli; test: Inhibition of biofilm formation in sdiA-knockout Escherichia coli AY1297 at 200 uM after 24 hrs by scanning electron microscopic analysis; format: functional, organism-based
[18] = biological target: T2, Transcriptional activator protein LasR (Pseudomonas aeruginosa (strain ATCC 15692 / PAO1 / 1C / PRS 101 / LMG12228)) (UniProt P25084); test: Antagonist activity at Pseudomonas aeruginosa PAO1 LasR expressing lasI coexpressing LVA-GFP at 100 to 200 uM after 24 hrs by fluorescence assay
T2 sequence (whole entry): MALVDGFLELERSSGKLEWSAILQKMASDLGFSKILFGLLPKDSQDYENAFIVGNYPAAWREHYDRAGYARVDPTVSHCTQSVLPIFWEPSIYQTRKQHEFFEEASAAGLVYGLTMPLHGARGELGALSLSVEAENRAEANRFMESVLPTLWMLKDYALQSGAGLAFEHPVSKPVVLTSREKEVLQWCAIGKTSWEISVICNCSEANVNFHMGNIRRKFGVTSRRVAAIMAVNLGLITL

[19] = system: Pseudomonas aeruginosa PAO1; test: Inhibition of quorum sensing system-mediated elastase B production in Pseudomonas aeruginosa PAO1 at 200 uM after 24 hrs by colorimetric assay relative to control
[20] = system: Pseudomonas aeruginosa; test: Inhibition of biofilm formation in wild-type Pseudomonas aeruginosa PAO1 at 200 uM after 24 hrs by crystal violet staining-based assay relative to control; format: functional
[21] = system: Escherichia coli; test: Inhibition of biofilm formation in sdiA-knockout Escherichia coli AY1297 expressing red fluorescent protein assessed as effect on surface area of biofilm at 200 uM after 24 hrs by confocal laser scanning microscopic analysis; format: functional, organism-based
[22] = system: Escherichia coli; test: Inhibition of biofilm formation in sdiA-knockout Escherichia coli AY1297 at 200 uM after 24 hrs by crystal violet staining-based assay relative to control; format: functional
[23] = system: Escherichia coli; test: Inhibition of biofilm formation in wild-type Escherichia coli RP437 expressing red fluorescent protein assessed as thickness of biofilm at 200 uM after 24 hrs by confocal laser scanning microscopic analysis (reference value: 253 micrometer); format: functional
[24] = system: Escherichia coli; test: Inhibition of biofilm formation in sdiA-knockout Escherichia coli AY1297 at 300 uM after 24 hrs by crystal violet staining-based assay relative to control; format: functional; conditions: AY1297, 24 h
[25] = system: Escherichia coli; test: Antimicrobial activity against wild-type Escherichia coli RP437 assessed as inhibition of planktonic growth at 300 uM measured for 2 to 24 hrs; format: organism-based; conditions: in vivo
[26] = system: Escherichia coli; test: Inhibition of biofilm formation in wild-type Escherichia coli RP437 at 300 uM after 24 hrs by crystal violet staining-based assay relative to control; format: functional; conditions: RP437, 24 h
[27] = system: Pseudomonas aeruginosa; test: Inhibition of biofilm formation in wild-type Pseudomonas aeruginosa PAO1 expressing red fluorescent protein assessed as effect on thickness of biofilm at 200 uM after 24 hrs by confocal laser scanning microscopic analysis; format: functional, organism-based
[28] = system: Pseudomonas aeruginosa; test: Inhibition of biofilm formation in wild-type Pseudomonas aeruginosa PAO1 expressing red fluorescent protein assessed as effect on surface area of biofilm at 200 uM after 24 hrs by confocal laser scanning microscopic analysis; format: functional, organism-based
[29] = system: Escherichia coli; test: Antimicrobial activity against sdiA-knockout Escherichia coli AY1297 assessed as inhibition of planktonic growth at 300 uM measured for 2 to 24 hrs; format: organism-based; conditions: in vivo
[30] = system: Pseudomonas aeruginosa; test: Antimicrobial activity against wild-type Pseudomonas aeruginosa PAO1 assessed as inhibition of planktonic growth at 300 uM measured for 2 to 24 hrs; format: organism-based; conditions: in vivo
[31] = system: Pseudomonas aeruginosa; test: Antimicrobial activity against wild-type Pseudomonas aeruginosa PAO1 assessed as inhibition of planktonic growth at 100 uM measured for 2 to 24 hrs; format: organism-based; conditions: in vivo
[32] = system: Pseudomonas aeruginosa; test: Inhibition of biofilm formation in wild-type Pseudomonas aeruginosa PAO1 at 50 uM; format: functional, organism-based

For `O=C1C=C(Br)/C(=C/Br)O1`, the “growth inhibition (GI)” value [1] was “Toxic”, the “growth inhibition (GI)” value [2] was “Non-toxic” and the Activity [3] was “Non-toxic”. The inhibition [4] was “inactive”, the Activity [5] was “Non-toxic” and the inhibition [6] was “inactive”. For the same compound, the “growth inhibition (GI)” value [7] was “Toxic”.

With `CC1=C(Br)/C(=C\Br)OC1=O` the “growth inhibition (GI)” value [1] was “Non-toxic”, the Activity [8] was “Active” and the inhibition at 200 µM [9] was 36%. The Activity [10] was 137 um, the inhibition at 200 µM ([11]; RP437, 24 h) was 50% and the “growth inhibition (GI)” value [2] was “Non-toxic”. The inhibition [12] was “Active”, the inhibition [13] was “Active” and the inhibition at 200 µM [14] was 53%. The Ratio [15] was 2, the inhibition at 200 µM ([16]; PAO1, 24 h) was 41% and the inhibition [17] was “inactive”. For the same compound, the inhibition [18] was “Active”, the inhibition [19] was 43% and the inhibition at 200 µM ([20]; PAO1, 24 h) was 43%. The inhibition [21] was “Active”, the “growth inhibition (GI)” value [7] was “Non-toxic” and the inhibition at 200 µM ([22]; AY1297, 24 h) was 18%. It also gave an Activity [23] of 126 um.

With `C/C(Br)=C1\C=CC(=O)O1` the Activity [8] was “Active”, the inhibition [11] was “inactive” and the inhibition at 300 µM [24] was 26%. For the same compound, the “growth inhibition (GI)” value [25] was “Non-toxic”, the inhibition at 300 µM [26] was 34% and the inhibition [27] was “inactive”. The inhibition [28] was “inactive”, the “growth inhibition (GI)” value [29] was “Non-toxic” and the Ratio [15] was 2. The inhibition [16] was “inactive”, the inhibition [18] was “Active” and the inhibition [19] was 41%. For the same compound, the inhibition [20] was “inactive”, the “growth inhibition (GI)” value [30] was “Non-toxic” and the inhibition [22] was “inactive”.

`O=C1C=C/C(=C/Br)O1` was tested, and the Activity [31] was “Toxic”, the “growth inhibition (GI)” value [1] was “Non-toxic” and the “growth inhibition (GI)” value [2] was “Toxic”. For the same compound, the inhibition [4] was “inactive”, the Activity [5] was “Non-toxic” and the inhibition [32] was “inactive”. The “growth inhibition (GI)” value [7] was “Toxic”.

Source: ChEMBL document CHEMBL3217670, “Structures and biofilm inhibition activities of brominated furanones for Escherichia coli and Pseudomonas aeruginosa” (Medchemcomm, 2013)
